From PubChem BioAssay (NCI)
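Exposure lasted 48 hours, with cells grown in 96-well plates and compounds tested at five concentrations. GI50 = concentration required for 50% inhibition of growth. At the TGI there is no net growth.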 Where a SMILES comes first, the peptide text is derived from it. [ ]: non-standard residue; d: D form. ξ: configuration not given here. Pentanoyl(2-O,4-OH,5-Cl) = O=C(O)C(O)CC(O)CCl; Ile(3ξ) = CCC(C)[C@H](N)C(=O)O; NMeV = CN[C@H](C(=O)O)C(C)C; NMeA = CN[C@@H](C)C(=O)O; βAla = NCCC(=O)O

Experiments:
Test in all cases: NCI-60 cell line screen, 48 h
OVCAR-4 ovarian = tested on: OVCAR-4 ovarian
SNB-19 CNS = tested on: SNB-19 CNS
TK-10 renal = tested on: TK-10 renal
DU-145 prostate = tested on: DU-145 prostate
OVCAR-3 ovarian = tested on: OVCAR-3 ovarian
M14 melanoma = tested on: M14 melanoma
UACC-257 melanoma = tested on: UACC-257 melanoma
SF-295 CNS = tested on: SF-295 CNS
MALME-3M melanoma = tested on: MALME-3M melanoma
BT-549 breast = tested on: BT-549 breast

Which GI50 (OVCAR-4 ovarian) does the source give for CCN(Cc1ccccc1)c1ccc(/C=C2\COc3ccccc3C2=O)cc1 here?
Its GI50 is 761 µM.

What about the TGI (OVCAR-4 ovarian) of the same molecule?
The TGI was greater than 1000 µM.

What about the GI50 (SNB-19 CNS) of the same molecule?
Its GI50 is greater than 1000 µM.

What about the TGI (SNB-19 CNS) of the same molecule?
Its TGI is greater than 1000 µM.

What about the GI50 (TK-10 renal) of the same molecule?
Its GI50 is greater than 1000 µM.

What about the TGI (TK-10 renal) of the same molecule?
Its TGI is greater than 1000 µM.

What about the GI50 (DU-145 prostate) of the same molecule?
The GI50 was greater than 1000 µM.

What about the TGI (DU-145 prostate) of the same molecule?
The TGI was greater than 1000 µM.

And the GI50 (OVCAR-3 ovarian)?
The GI50 was 288 µM.

What about the TGI (OVCAR-3 ovarian) of the same molecule?
Its TGI is greater than 1000 µM.

And the GI50 (M14 melanoma)?
Its GI50 is 330 µM.

What about the TGI (M14 melanoma) of the same molecule?
The TGI was greater than 1000 µM.

What about the GI50 (UACC-257 melanoma) of the same molecule?
The GI50 was greater than 1000 µM.

What about the TGI (UACC-257 melanoma) of the same molecule?
Its TGI is greater than 1000 µM.

And the GI50 (SF-295 CNS)?
Its GI50 is greater than 1000 µM.

What about the TGI (SF-295 CNS) of the same molecule?
The TGI was greater than 1000 µM.

What about the GI50 (MALME-3M melanoma) of the same molecule?
Its GI50 is greater than 1000 µM.

And the TGI (MALME-3M melanoma)?
Its TGI is greater than 1000 µM.

What about the GI50 (BT-549 breast) of the same molecule?
The GI50 was 340 µM.

What about the TGI (BT-549 breast) of the same molecule?
The TGI was greater than 1000 µM.

Which GI50 (OVCAR-4 ovarian) does the source give for Clc1ccc2c(NC3CCC(NC4CCCCC4)CC3)ccnc2c1 (stereo not given) here?
The GI50 was 6.48 µM.

What about the TGI (OVCAR-4 ovarian) of the same molecule?
The TGI was 41 µM.

What about the GI50 (SNB-19 CNS) of the same molecule?
Its GI50 is 21.3 µM.

And the TGI (SNB-19 CNS)?
The TGI was 89.8 µM.

And the GI50 (TK-10 renal)?
Its GI50 is 2.13 µM.

And the TGI (TK-10 renal)?
Its TGI is 7.11 µM.

And the GI50 (DU-145 prostate)?
The GI50 was 13.3 µM.

What about the TGI (DU-145 prostate) of the same molecule?
Its TGI is 33.6 µM.

And the GI50 (OVCAR-3 ovarian)?
Its GI50 is 5.34 µM.

And the TGI (OVCAR-3 ovarian)?
Its TGI is 23.2 µM.

What about the GI50 (M14 melanoma) of the same molecule?
Its GI50 is 1.72 µM.

What about the TGI (M14 melanoma) of the same molecule?
The TGI was 3.19 µM.

What about the GI50 (UACC-257 melanoma) of the same molecule?
The GI50 was 2.18 µM.

And the TGI (UACC-257 melanoma)?
The TGI was 4.17 µM.

What about the GI50 (SF-295 CNS) of the same molecule?
Its GI50 is 1.92 µM.

And the TGI (SF-295 CNS)?
Its TGI is 5.19 µM.

And the GI50 (MALME-3M melanoma)?
Its GI50 is 2.43 µM.

And the TGI (MALME-3M melanoma)?
Its TGI is 5.1 µM.

What about the GI50 (BT-549 breast) of the same molecule?
The GI50 was 12.3 µM.

And the TGI (BT-549 breast)?
Its TGI is 25.1 µM.

N#Cc1nc2cc(Cl)c(Cl)cc2nc1-c1ccc(Cl)cc1 was tested. Which GI50 (OVCAR-4 ovarian) did it give?
Its GI50 is greater than 100 µM.

And the TGI (OVCAR-4 ovarian)?
The TGI was greater than 100 µM.

And the GI50 (SNB-19 CNS)?
Its GI50 is greater than 43.4 µM.

What about the TGI (SNB-19 CNS) of the same molecule?
The TGI was greater than 60.6 µM.

And the GI50 (TK-10 renal)?
Its GI50 is 21.3 µM.

What about the TGI (TK-10 renal) of the same molecule?
Its TGI is 46.3 µM.

What about the GI50 (DU-145 prostate) of the same molecule?
The GI50 was 49.6 µM.

What about the TGI (DU-145 prostate) of the same molecule?
Its TGI is greater than 100 µM.

And the GI50 (OVCAR-3 ovarian)?
The GI50 was 1.89 µM.

What about the TGI (OVCAR-3 ovarian) of the same molecule?
Its TGI is greater than 47.8 µM.

What about the GI50 (M14 melanoma) of the same molecule?
The GI50 was greater than 85.3 µM.

And the TGI (M14 melanoma)?
Its TGI is greater than 100 µM.

What about the GI50 (UACC-257 melanoma) of the same molecule?
Its GI50 is 97.4 µM.

What about the TGI (UACC-257 melanoma) of the same molecule?
Its TGI is greater than 100 µM.

And the GI50 (SF-295 CNS)?
The GI50 was 19.6 µM.

What about the TGI (SF-295 CNS) of the same molecule?
Its TGI is 43.1 µM.

What about the GI50 (MALME-3M melanoma) of the same molecule?
Its GI50 is greater than 42.2 µM.

And the TGI (MALME-3M melanoma)?
The TGI was greater than 100 µM.

And the GI50 (BT-549 breast)?
Its GI50 is greater than 100 µM.

And the TGI (BT-549 breast)?
The TGI was greater than 100 µM.

What does the source list for CCC(C)[C@@H]1NC(=O)[C@@H]2CCCN2C(=O)C(CC(O)CCl)OC(=O)CCNC(=O)[C@H](C)N(C)C(=O)[C@H](C(C)C)N(C)C1=O (stereo not given in full) (cyclo([Ile(3ξ)][NMeV][NMeA][βAla][Pentanoyl(2-O,4-OH,5-Cl)]P))?
TGI (OVCAR-4 ovarian): > 100 µM; TGI (SNB-19 CNS): > 100 µM; TGI (TK-10 renal): > 100 µM; TGI (DU-145 prostate): > 100 µM; TGI (OVCAR-3 ovarian): > 100 µM; TGI (M14 melanoma): 3.09 µM; TGI (UACC-257 melanoma): > 86 µM; TGI (SF-295 CNS): 70.4 µM; TGI (MALME-3M melanoma): > 100 µM; TGI (BT-549 breast): > 100 µM

Which results are given for CN1CCN(c2ccc3nc(-c4[nH]ncc4Nc4ncnc5[nH]ccc45)[nH]c3c2)CC1?
GI50 (OVCAR-4 ovarian): 0.343 µM; TGI (OVCAR-4 ovarian): 2.13 µM; GI50 (SNB-19 CNS): 0.349 µM; TGI (SNB-19 CNS): 3.88 µM; GI50 (TK-10 renal): 1.11 µM; TGI (TK-10 renal): 3.32 µM; GI50 (DU-145 prostate): 0.362 µM; TGI (DU-145 prostate): 22.7 µM; GI50 (OVCAR-3 ovarian): 0.233 µM; TGI (OVCAR-3 ovarian): 0.759 µM; GI50 (M14 melanoma): 0.377 µM; TGI (M14 melanoma): 1.84 µM; GI50 (UACC-257 melanoma): 0.571 µM; TGI (UACC-257 melanoma): 20.4 µM; GI50 (SF-295 CNS): 0.867 µM; TGI (SF-295 CNS): 3.18 µM; GI50 (MALME-3M melanoma): 0.379 µM; TGI (MALME-3M melanoma): 2.64 µM; GI50 (BT-549 breast): 0.222 µM; TGI (BT-549 breast): 0.816 µM

How did the TGI (OVCAR-4 ovarian) turn out when CC(NC(=O)c1ccc(Cl)c(Cl)c1)c1ccc(-c2ccccc2)cc1 (stereo not given) was run?
The TGI was 37.7 µM.

And the TGI (SNB-19 CNS)?
Its TGI is 46.7 µM.

And the TGI (TK-10 renal)?
The TGI was 68.7 µM.

And the TGI (DU-145 prostate)?
Its TGI is 57.5 µM.

What about the TGI (OVCAR-3 ovarian) of the same molecule?
The TGI was 66.2 µM.

What about the TGI (M14 melanoma) of the same molecule?
Its TGI is greater than 100 µM.

What about the TGI (UACC-257 melanoma) of the same molecule?
The TGI was greater than 100 µM.

And the TGI (SF-295 CNS)?
Its TGI is greater than 100 µM.

What about the TGI (MALME-3M melanoma) of the same molecule?
The TGI was 49.1 µM.

What about the TGI (BT-549 breast) of the same molecule?
The TGI was greater than 100 µM.

Which results are given for C=CCn1c(SCC(=O)Nc2ccc(C(=O)/C=C/c3cc(OC)c(OC)c(OC)c3)cc2)nnc1-c1cc(OC)c(OC)c(OC)c1?
GI50 (OVCAR-4 ovarian): 5.67 µM; TGI (OVCAR-4 ovarian): 38.6 µM; GI50 (SNB-19 CNS): 4.3 µM; TGI (SNB-19 CNS): 73.2 µM; GI50 (TK-10 renal): 23.3 µM; TGI (TK-10 renal): 58.8 µM; GI50 (DU-145 prostate): 6.09 µM; TGI (DU-145 prostate): > 100 µM; GI50 (OVCAR-3 ovarian): 2.98 µM; TGI (OVCAR-3 ovarian): 8.46 µM; GI50 (M14 melanoma): 2.96 µM; TGI (M14 melanoma): 11.8 µM; GI50 (UACC-257 melanoma): 7.45 µM; TGI (UACC-257 melanoma): 36 µM; GI50 (SF-295 CNS): 5.25 µM; TGI (SF-295 CNS): > 100 µM; GI50 (MALME-3M melanoma): 11.1 µM; TGI (MALME-3M melanoma): 64.4 µM; GI50 (BT-549 breast): 2.14 µM; TGI (BT-549 breast): 6.25 µM

Which results are given for CC(C)Cn1cnc2c(N)nc3ccccc3c21?
GI50 (OVCAR-4 ovarian): 67.2 µM; TGI (OVCAR-4 ovarian): > 100 µM; GI50 (SNB-19 CNS): > 93.3 µM; TGI (SNB-19 CNS): > 100 µM; GI50 (TK-10 renal): 94.8 µM; TGI (TK-10 renal): > 100 µM; GI50 (DU-145 prostate): 47.2 µM; TGI (DU-145 prostate): > 100 µM; GI50 (OVCAR-3 ovarian): > 92.9 µM; TGI (OVCAR-3 ovarian): > 100 µM; GI50 (M14 melanoma): 43.9 µM; TGI (M14 melanoma): > 100 µM; GI50 (UACC-257 melanoma): 33.7 µM; TGI (UACC-257 melanoma): > 91.5 µM; GI50 (SF-295 CNS): 51.3 µM; TGI (SF-295 CNS): > 100 µM; GI50 (MALME-3M melanoma): > 100 µM; TGI (MALME-3M melanoma): > 100 µM; GI50 (BT-549 breast): 43.8 µM; TGI (BT-549 breast): > 100 µM
